{"source": "patent EP0335545B2", "about": "“Pharmaceutical formulations for parenteral use” (UNIVERSITY OF FLORIDA, priority 1988, dated 1989)", "key": {"[1]": {"experiment": "Lung and brain concentrations in male rats after i.v. E2-CDS in DMSO or as HPCD complex (HPLC with pre-column enrichment)", "type": "in vivo, Sprague-Dawley rats", "excerpt": "The loss of sensitivity resulting from the dilution step in the procedure optimal for pretreatment of biological samples (see sample preparation without extraction) could be compensated for by developing an HPLC system that allows injection of large volumes. A suitable HPLC-method which has been described in the literature [Roth et al, J. Chromatogr. 222: 13-22 (1981)] is based on alternating pre-column sample enrichment. The procedure used herein was as follows: The sample containing the drug is injected with a first pump A, delivering pure water, onto one of two pre-columns, which are alternatingly connected with the injection system by two pneumatically driven valves. Provided a certain lipophilicity, the drug is retained and concentrated on the pre-column, while accompanying water soluble-co-products like proteins are being washed out as long as water is pumped through the pre-column. This allows the direct injection of body fluids. After a certain enrichment time (6 and 8 minutes), simultaneous rotation of the two valves is induced, causing pre-column 1, where the injected drug has been absorbed, to be switched to the solvent stream of the second pump, B. Also, at this point, the recording integrator is started. Pump B delivers the mobile phase, necessary for separation and chromatography, and backflushes the sample from pre-column 1 onto the analytical column. Parallel to this process, pre-column 2 is switched to the water stream of pump A so that a sample can be injected and enriched while the previous one is being eluted (alternating mode). Volumes up to 1800 µL can be injected due to the concentration effect of the enrichment phase.\nThis system was applicable to the quantification of E2, E2-CDS and E2-Quat. The mobile phase for E2-CDS was: Acetonitrile/water 80:20 at a flow rate of 1.8 mL/minute. Optimal peak shape and retention time for E2 and E2-Ouat were obtained with pump B delivering a mixture of acetonitrile/water 42:58 which contained 0.025 M/L sodium salt of 1-octanesulfonic acid and 0.003 M/L tetrabutylammonium phosphate. […]"}, "physchem": {"experiment": "physchem", "type": "physicochemical", "description": "(§1) The retention time was 5.2 min. Other compounds were assayed spectrophotometrically."}, "[2]": {"experiment": "Maximum concentrations of selected CDS in varying concentrations of selected cyclodextrins", "type": "physicochemical", "description": "In further testing, maximum concentrations of selected CDS in varying concentrations of selected cyclodextrins were determined. The concentration of E2-CDS (mg/mL) was as follows: […]"}, "[3]": {"experiment": "Preparation of solid freeze-dried HPCD complexes: degree of incorporation", "type": "physicochemical", "description": "An excess of E2-CDS was added and the solution then was purged with helium. The resulting suspension was then sonicated for 30 minutes, filtered through a glass filter (ASTM 10-15M, Pyrex No. 36060) and freeze-dried overnight. Best results were obtained by hard-freezing the aqueous solution of the E2-CDS/HPCD complex for at least 10 hours before lyophilization. The degree of complex formation was determined by dissolving a small amount of the dry complex in methanol and then analyzing by high pressure liquid chromatography (HPLC).\nAn excess of E2-CDS or other CDS was added to a 50% w/w solution of HPCD. The suspension was sonicated for 30 minutes, filtered through 0.45 µm PVDF membranes and freeze-dried. The degree of incorporation was determined either spectrophotometrically or by HPLC. In some cases, the effect of solubilizing agents on the degree of incorporation was examined. This involved adding small amounts of polyoxyethylene 20 cetyl ether (Brij), polyoxyethylene sorbitan monooleate (Tween 80) or ethanol to the aqueous solution prior to lyophilization.\nas §1\nThe solution was degassed and the suspension was sonicated for 30 minutes, after which it was filtered and the filtrate was lyophilized. The dried filtrate contained 65.6 mg testosterone propionate or 29.6 mg T-CDS1 per gram of cyclodextrin complex. Compounds were analyzed for decomposition by thin-layer chromatography and ultraviolet absorption."}, "[4]": {"details": "37°C", "method": "In this procedure, 27.5 µL of a 5 x 10^-3 M solution of E2-CDS in acetonitrile was added to 2.75 mL of a solution containing 1 x 10^-4 M Fe(CN)6^-4, 0.06 M K^+, 0.001 M Fe(CN)6^-3. All solutions were made using water which had been boiled for 30 minutes and cooled while a stream of pyrogallol-scrubbed nitrogen passed through it. The E2-CDS was introduced via a syringe to the solution which was maintained at 37°C in a thermostated cell holder and contained in an anaerobic screw-top cuvette. […] For a given concentration of ferricyanide ions (6 x 10^-4 to 8 x 10^-3 M), the rate of disappearance of the E2-CDS was determined. This was done by calculating the decrease in the absorbance band at 360 nm (± 10 nm) subtracted from base line absorbance (500 ± 10 nm). A plot of the 1n [Abs] versus time gave a slope for the pseudo-first-order rate constant. This was done at several different ferricyanide ion concentrations. The obtained first-order rate constants were then plotted as a function of ferricyanide ion concentration generating a slope from which the second order rate constant (k0 s^-1 M^-1) was obtained. In examining the effect of 2-hydroxypropyl-β-cyclodextrin on the rate of E2-CDS oxidation, solutions containing the HPCD as well as those ions present in the first phase of the experiment were prepared. The second order constant was derived for each cyclodextrin concentration and a plot developed."}, "[5]": {"experiment": "Solid complex of E2-CDS with maltosyl-β-cyclodextrin/dimaltosyl-β-cyclodextrin mixture", "type": "physicochemical", "description": "In one example of the formulation of a solid complex, an excess of a representative CDS, E2-CDS, was added to a 40% aqueous solution of a mixture of maltosyl-β-cyclodextrin (71%) and various dimaltosyl-β-cyclodextrins (29%) obtained from Ensuiko Sugar Co., Ltd., Lot No. 88190, and mixed for several hours. The suspension was then filtered and freeze-dried, and the amount of complexed drug was determined analytically by UV spectraphotometry. The amount of incorporation was determined to be 81.88 mg/g."}, "[6]": {"details": "15 mg/kg in DMSO relative to 5 mg/kg as complex with HPCD in water, i.v., within the first hour"}}, "note": "Like-named read-outs stand apart in the source and are kept apart here.", "data": [{"smiles": "CN1C=CCC(C(=O)O[C@H]2CC[C@H]3[C@@H]4CCc5cc(O)ccc5[C@H]4CC[C@]23C)=C1", "note": "[Example E2-CDS, 3-Hydroxy-17β-[(1-methyl-1,4-dihydropyridin-3-yl)carbonyl]oxyestra-1,3,5(10)-triene]", "values": [{"measurement": "initial lung concentrations of E2-CDS, corrected for dose", "setting": "[1]; [6]", "result": "more than ten-fold"}, {"measurement": "initial lung concentrations of E2-Quat, corrected for dose", "setting": "[1]; [6]", "result": "more than ten-fold"}, {"measurement": "brain levels of E2-Quat, corrected for dose", "setting": "[1]; after 1 hour, HPCD complex in water compared to DMSO", "result": "not significantly different"}, {"measurement": "increase in incorporation with the lower ASDS material", "setting": "physchem", "result": 15, "unit": "%"}, {"measurement": "increase in solubility over the solubility in water", "setting": "physchem", "result": "150,000 fold"}, {"measurement": "slope of millimolarity of E2-CDS solubilized versus millimolarity of HPCD added (estimation of bulk stability of the complex)", "setting": "physchem", "result": 0.2}, {"measurement": "solubility", "setting": "physchem; 10 mm aqueous β-cyclodextrin, Maximum Solubility", "result": 27, "unit": "µg/mL"}, {"measurement": "solubility", "setting": "physchem; 10 mm aqueous γ-cyclodextrin, Maximum Solubility", "result": 22, "unit": "µg/mL"}, {"measurement": "solubility", "setting": "physchem; 50 mm aqueous α-cyclodextrin, Maximum Solubility", "result": 5, "unit": "µg/mL"}, {"measurement": "solubility", "setting": "physchem; 62.5% w/v aqueous hpcd, Maximum Solubility", "result": 30200, "unit": "µg/mL"}, {"measurement": "solubility", "setting": "physchem; water, Maximum Solubility (solubility of E2-CDS in water)", "result": 0.2, "unit": "µg/mL"}, {"measurement": "solubility", "setting": "physchem; water, water solubility", "result": 0.2, "unit": "µg/mL"}, {"measurement": "solubility", "setting": "[2]; 20% hebcd", "result": 3090, "unit": "µg/mL"}, {"measurement": "solubility", "setting": "[2]; 20% hpcd", "result": 6730, "unit": "µg/mL"}, {"measurement": "solubility", "setting": "[2]; 40% hebcd", "result": 6070, "unit": "µg/mL"}, {"measurement": "solubility", "setting": "[2]; 40% hpcd", "result": 11900, "unit": "µg/mL"}, {"measurement": "solubility", "setting": "[2]; 40% hpgcd", "result": 4000, "unit": "µg/mL"}, {"measurement": "stability of the solid complex", "setting": "[3]", "result": "stable as a dry powder"}, {"measurement": "degree of complexation", "setting": "[3]; 50% (w/w) HPCD, freeze-dried", "result": "20 to 40", "unit": "mg/g"}, {"measurement": "upper limit for a stable complex", "setting": "[3]; HPCD complex", "result": "approximately 40 mg/g"}, {"measurement": "degree of incorporation", "setting": "[3]; addition of Brij (0.7% w/w)", "result": 189, "unit": "mg/g"}, {"measurement": "degree of incorporation after storage", "setting": "[3]; addition of Brij (0.7% w/w), in 12 days", "result": 42, "unit": "mg/g"}, {"measurement": "effect on degree of incorporation", "setting": "[3]; addition of Tween 80 (0.8% w/w) or ethanol (10% v/v)", "result": "only modest effects"}, {"measurement": "Amount of Drug in Dry Complex", "setting": "[3]; freeze-dried complex from 50% w/w HPCD (ASDS 5.1)", "result": 37, "unit": "mg/g"}, {"measurement": "inhibition of second order rate of oxidation", "setting": "[4]; 0.5% w/v cyclodextrin", "result": 42, "unit": "%"}, {"measurement": "inhibition of second order rate of oxidation", "setting": "[4]; 1.0% w/v cyclodextrin", "result": 60, "unit": "%"}, {"measurement": "inhibition of second order rate of oxidation", "setting": "[4]; 2% cyclodextrin", "result": 81, "unit": "%"}, {"measurement": "reduction in the second order rate of oxidation", "setting": "[4]; 5-20% cyclodextrin", "result": "approximately 90%"}, {"measurement": "amount of incorporation", "setting": "[5]; 40% aqueous maltosyl-β-cyclodextrin (71%) / dimaltosyl-β-cyclodextrins (29%), freeze-dried", "result": 81.88, "unit": "mg/g"}, {"measurement": "amount of incorporation, comparable figure", "setting": "[5]; HPCD", "result": "approximately 36.2 mg/g"}]}]}
